molecular target: T1, hCRTH2 (Homo sapiens, UniProt Q9Y5Y4); test: Radioligand binding assay ([3H]PGD2 competition, HEK-hCRTH2 membranes); details: [3H]PGD2 binding, values in text
T1 construct: expressed in transfected cells; host or cells: HEK (human embryonic kidney) cells expressing hCRTH2; membrane preparation
T1 sequence (Q9Y5Y4 1-395): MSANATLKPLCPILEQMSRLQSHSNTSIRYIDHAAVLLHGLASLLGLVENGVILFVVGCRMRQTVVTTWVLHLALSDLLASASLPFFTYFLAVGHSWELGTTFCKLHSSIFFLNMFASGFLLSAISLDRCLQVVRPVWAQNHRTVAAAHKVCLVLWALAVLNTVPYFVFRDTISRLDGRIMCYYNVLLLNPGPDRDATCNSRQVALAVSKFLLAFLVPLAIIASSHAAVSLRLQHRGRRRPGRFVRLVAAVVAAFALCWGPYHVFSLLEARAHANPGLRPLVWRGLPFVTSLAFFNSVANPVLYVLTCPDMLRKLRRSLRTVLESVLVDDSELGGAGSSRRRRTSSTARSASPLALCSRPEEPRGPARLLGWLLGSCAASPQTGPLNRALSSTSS
In short: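 Filter-bound radioactivity was counted by scintillation after 60 min incubations at room temperature. Membranes (8-20 μg) from HEK cells expressing hCRTH2 competed test ligands against 3.0 nM [3H]PGD2 in Tris-HCl pH 7.4 buffer with EDTA and 2 mM MnCl2; 10 μM PGD2 set non-specific binding.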

Structure (SMILES)	Ki [nM]
O=C(O)CCCCc1nc2cc(C(=O)N[C@H]3CCOc4ccccc43)ccc2nc1-c1ccc(Cl)cc1 [compound 507, (S)-5-(3-(4-chlorophenyl)-7-(chroman-4-ylcarbamoyl)quinoxalin-2-yl)pentanoic acid]	1.3

same assay, conditions: [3H]PGD2 competition, Table B

Structure (SMILES)	Ki [nM]
C[C@H](CCCc1nc2cc(C(=O)N[C@H]3CCCc4ccccc43)ccc2nc1-c1ccc(F)cc1)C(=O)O [compound 478, (R)-5-(3-(4-fluorophenyl)-7-(((S)-1,2,3,4-tetrahydronaphthalen-1-yl)carbamoyl)quinoxalin-2-yl)-2-methylpentanoic acid]	20.1 to 200
C[C@H](CCCc1nc2cc(C(=O)N[C@H](C)c3ccc(F)cc3)ccc2nc1-c1ccc(F)cc1)C(=O)O [compound 479]	20.1 to 200
O=C(N[C@@H]1CCCc2cc(F)ccc21)c1ccc2nc(-c3ccccc3)c(CCCC(F)(F)C(=O)O)nc2c1 [compound 480, (R)-2,2-difluoro-5-(7-((6-fluoro-1,2,3,4-tetrahydronaphthalen-1-yl)carbamoyl)-3-phenylquinoxalin-2-yl)pentanoic acid]	2.1 to 20
C[C@H](CCCc1nc2cc(C(=O)N[C@@H](C)c3ccc(F)cc3)ccc2nc1-c1ccc(F)cc1)C(=O)O [compound 481, (R)-5-(3-(4-fluorophenyl)-7-(((S)-1-(4-fluorophenyl)ethyl)carbamoyl)quinoxalin-2-yl)-2-methylpentanoic acid]	20.1 to 200
C[C@@H](CCCc1nc2cc(C(=O)N[C@@H]3CCCc4ccccc43)ccc2nc1-c1ccc(F)cc1)C(=O)O [compound 482, (S)-5-(3-(4-fluorophenyl)-7-(((R)-1,2,3,4-tetrahydronaphthalen-1-yl)carbamoyl)quinoxalin-2-yl)-2-methylpentanoic acid]	2.1 to 20
C[C@@H](CCCc1nc2cc(C(=O)N[C@H]3CCCc4ccccc43)ccc2nc1-c1ccc(F)cc1)C(=O)O [compound 483, (S)-5-(3-(4-fluorophenyl)-7-(((S)-1,2,3,4-tetrahydronaphthalen-1-yl)carbamoyl)quinoxalin-2-yl)-2-methylpentanoic acid]	2.1 to 20
C[C@@H](CCCc1nc2cc(C(=O)N[C@H](C)c3ccc(F)cc3)ccc2nc1-c1ccc(F)cc1)C(=O)O [compound 484, (S)-5-(3-(4-fluorophenyl)-7-(((R)-1-(4-fluorophenyl)ethyl)carbamoyl)quinoxalin-2-yl)-2-methylpentanoic acid]	2.1 to 20
C[C@H](NC(=O)c1ccc2nc(-c3ccc(F)cc3)c(CCC[C@H](C)C(=O)O)nc2c1)c1ccc(F)cc1 [compound 485, (S)-5-(3-(4-fluorophenyl)-7-(((S)-1-(4-fluorophenyl)ethyl)carbamoyl)quinoxalin-2-yl)-2-methylpentanoic acid]	2.1 to 20
O=C(N[C@@H]1CCCc2ccccc21)c1ccc2nc(-c3ccc(F)cc3)c(CCCC(F)(F)C(=O)O)nc2c1 [compound 486, (R)-2,2-difluoro-5-(3-(4-fluorophenyl)-7-((1,2,3,4-tetrahydronaphthalen-1-yl)carbamoyl)quinoxalin-2-yl)pentanoic acid]	2.1 to 20
C[C@@H](NC(=O)c1ccc2nc(-c3ccc(F)cc3)c(CCCC(F)(F)C(=O)O)nc2c1)c1ccc(F)cc1 [compound 487, (R)-2,2-difluoro-5-(3-(4-fluorophenyl)-7-((1-(4-fluorophenyl)ethyl)carbamoyl)quinoxalin-2-yl) pentanoic acid]	20.1 to 200
C[C@@H]1CN(c2ccc(F)cc2)CCN1C(=O)c1ccc2nc(-c3ccc(Cl)cc3)c(CCCCC(=O)O)nc2c1 [compound 488, (R)-5-(3-(4-chlorophenyl)-7-(4-(4-fluorophenyl)-2-methylpiperazine-1-carbonyl)quinoxalin-2-yl)pentanoic acid]	2.1 to 20
C[C@@H]1CN(c2ccc(F)cc2)CCN1C(=O)c1ccc2nc(-c3ccc(F)cc3)c(CCCCC(=O)O)nc2c1 [compound 489, (R)-5-(3-(4-fluorophenyl)-7-(4-(4-fluorophenyl)-2-methylpiperazine-1-carbonyl)quinoxalin-2-yl)pentanoic acid]	2.1 to 20
C[C@H]1CN(c2ccc(F)cc2)CCN1C(=O)c1ccc2nc(-c3ccc(Cl)cc3)c(CCCCC(=O)O)nc2c1 [compound 490, (S)-5-(3-(4-chlorophenyl)-7-(4-(4-fluorophenyl)-2-methylpiperazine-1-carbonyl)quinoxalin-2-yl)pentanoic acid]	2.1 to 20
O=C(O)CCCCc1nc2cc(C(=O)N[C@@H]3CCOc4ccccc43)ccc2nc1-c1ccc(F)cc1 [compound 491, (R)-5-(7-(chroman-4-ylcarbamoyl)-3-(4-fluorophenyl)quinoxalin-2-yl)pentanoic acid]	0.1 to 2
O=C(O)CCCCc1nc2cc(C(=O)N[C@H]3CCOc4ccccc43)ccc2nc1-c1ccc(F)cc1 [compound 492, (S)-5-(7-(chroman-4-ylcarbamoyl)-3-(4-fluorophenyl)quinoxalin-2-yl)pentanoic acid]	2.1 to 20
C[C@@H](NC(=O)c1ccc2nc(-c3ccc(Cl)cc3)c(CCCCC(=O)O)nc2c1)c1cccc2ccccc12 [compound 493, (R)-5-(3-(4-chlorophenyl)-7-((1-(naphthalen-1-yl)ethyl)carbamoyl)quinoxalin-2-yl)pentanoic acid]	2.1 to 20

Structure (SMILES)	Ki [nM]
C[C@H](NC(=O)c1ccc2nc(-c3ccc(Cl)cc3)c(CCCCC(=O)O)nc2c1)c1cccc2ccccc12 [compound 494, (S)-5-(3-(4-chlorophenyl)-7-((1-(naphthalen-1-yl)ethyl)carbamoyl)quinoxalin-2-yl)pentanoic acid]	2.1 to 20
C[C@@H](NC(=O)c1ccc2nc(-c3ccc(Cl)cc3)c(CCCCC(=O)O)nc2c1)c1ccc2ccccc2c1 [compound 495, (R)-5-(3-(4-chlorophenyl)-7-((1-(naphthalen-2-yl)ethyl)carbamoyl)quinoxalin-2-yl)pentanoic acid]	2.1 to 20
C[C@H](NC(=O)c1ccc2nc(-c3ccc(Cl)cc3)c(CCCCC(=O)O)nc2c1)c1ccc2ccccc2c1 [compound 496, (S)-5-(3-(4-chlorophenyl)-7-((1-(naphthalen-2-yl)ethyl)carbamoyl)quinoxalin-2-yl)pentanoic acid]	2.1 to 20
C[C@H]1CN(c2ccc(F)cc2)CCN1C(=O)c1ccc2nc(-c3ccc(F)cc3)c(CCCCC(=O)O)nc2c1 [compound 497, (S)-5-(3-(4-fluoro-phenyl)-7-(4-(4-fluorophenyl)-2-methylpiperazine-1-carbonyl)quinoxalin-2-yl)pentanoic acid]	2.1 to 20
C[C@@H]1CN(c2ccccc2)CCN1C(=O)c1ccc2nc(-c3ccc(Cl)cc3)c(CCCCC(=O)O)nc2c1 [compound 498, (R)-5-(3-(4-chlorophenyl)-7-(2-methyl-4-phenyl-piperazine-1-carbonyl)quinoxalin-2-yl)pentanoic acid]	2.1 to 20
C[C@@H]1CN(c2ccccc2)CCN1C(=O)c1ccc2nc(-c3ccc(F)cc3)c(CCCCC(=O)O)nc2c1 [compound 499, (R)-5-(3-(4-fluorophenyl)-7-(2-methyl-4-phenyl-piperazine-1-carbonyl)quinoxalin-2-yl)pentanoic acid]	2.1 to 20
O=C(N[C@@H]1CCCc2ccccc21)c1ccc2nc(-c3ccc(F)cc3)c(CC[C@@H]3C[C@H]3C(=O)O)nc2c1 [compound 500, (1R,2R)-2-(2-(3-(4-fluorophenyl)-7-(((R)-1,2,3,4-tetrahydronaphthalen-1-yl)carbamoyl)quinoxalin-2-yl)ethyl)cyclopropane-carboxylic acid]	2.1 to 20
O=C(N[C@@H]1CCCc2ccccc21)c1ccc2nc(-c3ccc(F)cc3)c(CCC3CC3C(=O)O)nc2c1 (stereo partly drawn) [compound 501, 2-(2-(3-(4-fluorophenyl)-7-(((R)-1,2,3,4-tetrahydronaphthalen-1-yl)carbamoyl)quinoxalin-2-yl)ethyl)cyclopropane-carboxylic acid]	20.1 to 200
O=C(O)CCCCc1nc2cc(C(=O)NC3CCCc4cc(C(F)(F)F)cnc43)ccc2nc1-c1ccccc1 (centres unmarked) [compound 502, 5-(3-phenyl-7-((3-(trifluoromethyl)-5,6,7,8-tetrahydroquinolin-8-yl)carbamoyl)quinoxalin-2-yl)pentanoic acid]	20.1 to 200
O=C(O)CCCCc1nc2cc(C(=O)N[C@@H]3CCCc4ncccc43)ccc2nc1-c1ccccc1 [compound 503, (R)-5-(3-phenyl-7-((5,6,7,8-tetrahydroquinolin-5-yl)carbamoyl)quinoxalin-2-yl)pentanoic acid]	20.1 to 200
O=C(O)CCCCc1nc2cc(C(=O)N[C@H]3CCCc4ncccc43)ccc2nc1-c1ccccc1 [compound 504, (S)-5-(3-phenyl-7-((5,6,7,8-tetrahydroquinolin-5-yl)carbamoyl)quinoxalin-2-yl)pentanoic acid]	2.1 to 20
O=C(O)CCCCc1nc2cc(C(=O)NC3CCCc4cnccc43)ccc2nc1-c1ccccc1 (centres unmarked) [compound 505, 5-(3-phenyl-7-((5,6,7,8-tetrahydroisoquinolin-5-yl)carbamoyl)quinoxalin-2-yl)pentanoic acid]	2.1 to 20
O=C(O)CCCCc1nc2cc(C(=O)N[C@@H]3CCOc4ccccc43)ccc2nc1-c1ccc(Cl)cc1 [compound 506]	0.1 to 2
O=C(O)CCCCc1nc2cc(C(=O)N[C@H]3CCOc4ccccc43)ccc2nc1-c1ccc(Cl)cc1 [compound 507, (S)-5-(3-(4-chlorophenyl)-7-(chroman-4-ylcarbamoyl)quinoxalin-2-yl)pentanoic acid]	0.1 to 2
O=C(O)CCCCc1nc2cc(C(=O)N[C@H]3c4ccccc4C[C@H]3O)ccc2nc1-c1ccc(F)cc1 [compound 508, 5-(3-(4-fluorophenyl)-7-(((1S,2R)-2-hydroxy-2,3-dihydro-1H-inden-1-yl)carbamoyl)quinoxalin-2-yl)pentanoic acid]	2.1 to 20
